{"source": "patent US9739734B2", "about": "“Methods and systems of detecting exocytosis of a target molecule from a population of cells” (THE MARINE […], priority 2013, dated 2017)", "system": "pancreatic islet", "experiment": "Impedance analysis of a pancreatic islet for insulin exocytosis (single frequency, real-time)", "type": "cell-based", "description": "In one embodiment, the method can be used to measure exocytosis of a molecule from an islet of cells. […] In one embodiment, islets can be modeled by 4 passive elements as in the equivalent electric circuit, where RMEM and CMEM represent the sum of the plasma membrane (MEM) resistances (R) and capacitances (C), and RCYT and RINT represent the sum of cytosolic (CYT) and intercellular space (INT) resistances, for all cells in the islet, respectively (FIG. 1B). AC currents applied across a whole islet result in voltage drops across these 4 elements, which are dependent, in part, on the AC frequency and the impedance (Z) of these elements (V=I(ZR(MEM+CYT+INT)+ZC(MEM)). ZC(MEM) and ZR(MEM) are generally sensitive to the level of an applied secretagogue (e.g., glucose), which at stimulatory levels decrease the RMEM, via opening of ion channels, and increase CMEM, via surface area increase reflective of exocytosis. Separation of the measured AC voltage into real (in phase with current) and imaginary (out of phase with current) components for 2 different frequencies can provide direct determination of RMEM, CMEM, RCYT and RINT through generation of 4 separate equations.\nIn order to optimize the resolution for monitoring changes in CMEM, an appropriate AC current can be applied at selected frequencies where the measured voltage drop across CMEM is readily detectable (e.g., where the measured voltage drop cross CMEM changes the most) during exocytosis. […] CIP can provide visualization of the changes in plasma membrane capacitance (PMc) over the range of applied frequencies, and thus the frequencies (e.g., 2 frequencies) at which the largest changes (e.g., the two largest changes) in plasma membrane capacitance can be determined as optimal AC frequencies.\nThe two optimal AC frequencies are then applied simultaneously to islets, e.g., according to the block diagram in FIG. 2. […] The computer can be used to compute, track and store the values of the passive elements of the equivalent circuit corresponding to the islet being measured. […]"}
{"smiles": "[Cl-].[K+]", "note": "[KCl, potassium chloride]", "values": [{"measurement": "exocytosis of insulin from cells in the islet (shift in complex impedance plot)", "setting": "25 mM KCl, before vs after addition, one frequency, FIG. 3", "value": "substantial exocytosis of insulin"}, {"measurement": "change in whole islet capacitance (imaginary component of impedance)", "setting": "KCl final concentration 25 mM, single frequency ~1250 Hz, time series, FIG. 4B", "value": "immediate change in whole islet capacitance"}, {"measurement": "change in whole islet resistance (real component of impedance)", "setting": "KCl final concentration 25 mM, single frequency, time series, FIG. 4A", "value": "not whole islet resistance"}]}
